Reference: article PMC6268373, “Systematic Study of the Physicochemical Properties of a Homologous Series of Aminobisphosphonates” (Molecules, 2012)
≈ marks a conversion by molar mass, not a printed value. Where two headings read alike, the source gives them in different places.

What was measured:
[1] = Protonation constants by (traditional) potentiometric titration (TPT), SUPERQUAD; details: 0.1 M NaNO3, 25 °C; for pKa: TPT; for logβx ± 3σ, x = 1 (H3L−) / logβx ± 3σ, x = 2 (H4L) / logβx ± 3σ, x = 3 (H5L+) / logβx ± 3σ, x = −1 (HL3−) / logβx ± 3σ, x = −2 (L4−): overall protonation, zero level H2L2−
Description: Results were obtained from […] as overall stability constants (log β values); following the chosen zero level H2L^2−. This zero level H2L^2− was chosen in the calculations to avoid any accumulation of errors of protonation constants at different pH ranges. The log β results for reactions (4) and (5) obtained in the final refinements are listed in Table S3 (see Supporting Information) with error limits (±3σ), number of points/number of titrations and χ^2/Σ statistics.
The details of the experiments using (traditional) potentiometric titration are presented in the Supporting Information. The results of the determination by Sirius instrument are shown in the Supporting Information. Potentiometric titrations of the compounds were performed with the PCA200 apparatus (Sirius Analytical Instruments Ltd, Forest Row, East Sussex, UK).
Table S2. The effect of pH on aqueous solubility (mg/L) of aminoalkylbis(phosphonates) […]
Solubility (g/L) of Compound
Determination of the Protonation Constants Using (traditional) Potentiometric Titration. Reagents:
Aqueous 0.1 M NaOH was prepared from Titrisol ampoules (Merck) and 0.1 M HNO3 from Convol ampoules (BDH). The background solution was prepared by dissolving NaNO3 in deionised water.
The NaNO3 and NaCl used in reference electrode were p.a. grade (Merck). The water used in the dilutions and titration solutions was purified with Milli-RO and Milli-Q water purification systems […]
Potentiometric measurements: The protonation equilibria was studied in aqueous 0.1 M NaNO3 at 25.0 ± 0.1 °C through a series of potentiometric EMF titrations carried out with a Schott-Geräte GmbH […]
The cell arrangement for the measurement of the hydrogen ion concentration [H+] was as follows:
−RE […] equilibrium solution […] GE+ (1) where GE denotes a glass electrode (Schott N2680), and RE is Hg, Hg2Cl2 […] 0.01 M NaCl, 0.09 M NaNO3. Expression (2) is valid assuming that the activity coefficients are constant.
The cell parameter E0 and the liquid junction coefficient jH, valid in acidic solutions, were determined for each titration by adding a known amount of HNO3 to the background electrolyte. The value of the liquid junction coefficient jOH, valid in basic solutions, was determined periodically. Only stable EMF readings were used in the calculations.
During the measurements of the protonation equilibria, aqueous 0.1 M NaOH or 0.1 M HNO3 was […]
Four to eight independent titrations were carried out for each ligand. The number of data points used in […]
Data treatment: Protonation and deprotonation of the ligands were controlled by addition of HNO3 or NaOH. The curves of ZH versus pH were drawn to visualize the experimental data sets. ZH describes the average number of H+ ions added or liberated per mole of ligand and is given by the relationship […]
where CH denotes the total concentration of protons calculated over the zero level H2L2−.
In the evaluation of the equilibrium constants, the following two-component equilibria were utilized:
H2L2− ⇋ H2-xL(2+x)– + xH+ , x = 1–2; β–x (4) xH+ + H2L2− ⇋ Hx+2Lx–2, x = 1–3; βx (5)
Mathematical analysis of the systems involves a search for protonation models and equilibrium constants that best describe the experimental data. The calculations were carried out with the computer […]
1200). The sample standard deviation Σ and the χ2 statistics used as criteria in the selection of the models were those provided by the program. As a means to improve the confidence level, the error limits for log β values determined in this study are reported as three times the standard deviation estimated by the program.
Figure S2. ZH vs. pH for protonation of compounds (a) 1; (b) 2; (c) 3; (d) 4 and (e) 5.

[2] = pKa determination with Sirius instrument (PCA200)
[3] = Aqueous solubility of saturated solution at 21 °C (phosphorus determination by molybdenum blue spectrophotometry); details: 21 °C; for solubility at 30 min: water, thermodynamic from solid; for pH of saturated solution: saturated aqueous solution, agitation time 30 min
Method: (§1) A Jasco V-530 UV/Vis spectrophotometer was used for phosphorus determination at 880 nm wavelength. Filtered liquid samples were diluted to the appropriate volume with Milli-Q water and were digested with the persulphate oxidation technique in acidic medium at elevated temperature to convert aminobisphosponates to orthophosphate. In an acidic medium, ammonium molybdate and antimony potassium tartrate react with orthophosphate to form a phosphomolybdic acid that is reduced to intensively colored molybdenum blue by ascorbic acid [30].
(§2) The mixture containing an excess of the studied compound was first agitated for predetermined time with magnetic stirrer and before taking the sample mixture was allowed to stand for 24 h without stirring. The sample (about 5 mL) was taken from liquid above the solids, pH was measured and the sample was filtered through 0.2 µm membrane filter to remove any possible insoluble particles. The phosphorus concentration in the filtered sample solution was determined by using the spectrophotometric method described above.

[4] = Thermal analysis (TG/DTA and TGA 7); type: physicochemical; details: for Td / Td (decomposition onset): air; for Td: 5 °C/min; for Temp. range of 1st cleavage: lower limit taken at 0.5 wt-%; for Td (decomposition onset): average from both instruments, heating rate 5 °C/min
Method: Thermal decomposition paths with evaluation of crystal water content were obtained parallel with two instruments; Perkin Elmer STA 6000 thermogravimetric TG/DTA and Perkin Elmer TGA 7 analyzers (Perkin Elmer, Massachusetts, USA). Measurements were carried out in an open platinum crucible (the higher 5 mm crucible was used in TG/DTA and a shallower 2 mm crucible in TGA 7) under air atmosphere (flow rate of 45 mL/min) with a heating rate of 5 °C/min over the temperature range of 25−700 °C. The temperature calibration of STA 6000 was made using melting points of indium (156.60 °C) and zinc (419.5 °C) standards. For TGA 7 magnetic Curie-point calibration technique (Alumel, Ni, Perkalloy, Fe) was used. The weight balance of both instruments was calibrated by measuring a standard weight of 50 mg at room temperature. The sample weights used in the measurements were about 4–8 mg, and for each bisphosphonate, it was attempted to keep the same on both instruments. The melting/dehydration/decomposition behavior of the compounds was also visually monitored using a Stuart Scientific SMP3 melting point apparatus.

[5] = cited from earlier work; for logK, pKa3: H2L2− + H+ ⇋ H3L−; for logK, pKa2: H3L− + H+ ⇋ H4L; for logK, pKa4: HL3− + H+ ⇋ H2L2−
[6] = Effect of temperature on aqueous solubility; details: thermodynamic from solid
Method: as §1, §2

[7] = Effect of pH on aqueous solubility; details: 21 °C, thermodynamic from solid
Method: as §1, §2

[8] = aqueous 0.1 M NaNO3, log K, pKa1 (H4L + H+ ⇋ H5L+), approximate values
[9] = aqueous 0.1 M NaNO3, log K, pKa2 (H3L− + H+ ⇋ H4L)
[10] = aqueous 0.1 M NaNO3, log K, pKa3 (H2L2− + H+ ⇋ H3L−)
[11] = aqueous 0.1 M NaNO3, log K, pKa4 (HL3− + H+ ⇋ H2L2−)
[12] = aqueous 0.1 M NaNO3, log K, pKa5 (L4− + H+ ⇋ HL3−)

NCCCCC(O)(P(=O)(O)O)P(=O)(O)O [Compound 3, (5-Amino-1-hydroxypentylidene)bisphosphonic acid]
pKa [1, 8]: 0.62 | pKa [1, 9]: 2.3 | pKa [1, 10]: 6.44 | pKa [1, 11]: 10.8 | pKa [1, 12]: 12.1 | logβx ± 3σ, x = 1 (H3L−) [1]: 6.44 ± 0.02 | logβx ± 3σ, x = 2 (H4L) [1]: 8.74 ± 0.03 | logβx ± 3σ, x = 3 (H5L+) [1]: 9.36 ± 0.51 | logβx ± 3σ, x = −1 (HL3−) [1]: −10.78 ± 0.02 | logβx ± 3σ, x = −2 (L4−) [1]: −22.83 ± 0.03 | pKa 2 (Sirius) [2]: 1.92 | pKa 3 (Sirius) [2]: 2.42 | pKa 4 (Sirius) [2]: 6.40 | solubility at 30 min ([3]; Milli-Q water, unbuffered): 4010 µg/mL (≈ 15.2 mM) | pH of saturated solution [3]: 2.22 | Onset temperature of first cleavage ([4]; TG/DTA, higher crucible): 217 °C | Td ([4]; TG/DTA, higher crucible): 217 °C | Temp. range of 1st cleavage ([4]; TG/DTA, higher crucible): 198–252 °C | Onset temperature of first cleavage ([4]; TGA 7, shallow crucible): 224 °C | Td ([4]; TGA 7, shallow crucible): 224 °C | Temp. range of 1st cleavage ([4]; TGA 7, shallow crucible): 195–265 °C | Td (decomposition onset) [4]: 220 °C

NCCCCCC(O)(P(=O)(O)O)P(=O)(O)O [Compound 4, (6-Amino-1-hydroxyhexylidene)bisphosphonic acid, reference compound]
logK, pKa3 ([5]; ref 4): 6.50 | logK, pKa3 ([5]; ref 13): 5.49 | logK, pKa2 ([5]; ref 4): 2.45 | logK, pKa2 ([5]; ref 13): 2.90 | logK, pKa4 ([5]; ref 4): 10.66 | logK, pKa4 ([5]; ref 13): 8.63 | logK, pKa5 ([5]; L4− + H+ ⇋ HL3−, ref 13): 10.9 | pKa ([1]; log K, pKa1 (H4L + H+ ⇋ H5L+), approximate values): 0.94 | pKa ([1]; log K, pKa2 (H3L− + H+ ⇋ H4L)): 2.38 | pKa ([1]; log K, pKa3 (H2L2− + H+ ⇋ H3L−)): 6.62 | pKa ([1]; log K, pKa4 (HL3− + H+ ⇋ H2L2−)): 10.9 | pKa ([1]; log K, pKa5 (L4− + H+ ⇋ HL3−)): 11.9 | logβx ± 3σ, x = 1 (H3L−) [1]: 6.62 ± 0.02 | logβx ± 3σ, x = 2 (H4L) [1]: 9.00 ± 0.03 | logβx ± 3σ, x = 3 (H5L+) [1]: 9.94 ± 0.12 | logβx ± 3σ, x = −1 (HL3−) [1]: −10.86 ± 0.02 | logβx ± 3σ, x = −2 (L4−) [1]: −22.80 ± 0.02 | solubility at 24 h ([6]; 4 °C, water): 4470 µg/mL (≈ 16.1 mM) | solubility at 24 h ([6]; 7.6 °C, water): 4600 µg/mL (≈ 16.6 mM) | solubility at 24 h ([6]; 21 °C, water): 5170 µg/mL (≈ 18.7 mM) | solubility at 24 h ([6]; 30 °C, water): 5770 µg/mL (≈ 20.8 mM) | solubility at 24 h ([6]; 40 °C, water): 7620 µg/mL (≈ 27.5 mM) | solubility at 24 h ([6]; 50 °C, water): 9550 µg/mL (≈ 34.5 mM) | pKa 2 (Sirius) [2]: 2.99 | pKa 3 (Sirius) [2]: 6.36 | pKa 4 (Sirius) [2]: 6.82 | solubility at 30 min ([7]; pH 0, aqueous buffer): 6340 µg/mL (≈ 22.9 mM) | solubility at 30 min ([7]; pH 1, aqueous buffer): 3840 µg/mL (≈ 13.9 mM) | solubility at 30 min ([7]; pH 2, aqueous buffer): 2900 µg/mL (≈ 10.5 mM) | solubility at 30 min ([7]; pH 3, aqueous buffer): 2970 µg/mL (≈ 10.7 mM) | solubility at 30 min ([7]; pH 4, aqueous buffer): 3090 µg/mL (≈ 11.1 mM) | solubility at 30 min ([7]; pH 5, aqueous buffer): 3220 µg/mL (≈ 11.6 mM) | solubility at 30 min ([7]; pH 6, aqueous buffer): 3390 µg/mL (≈ 12.2 mM) | solubility at 30 min ([7]; pH 7, aqueous buffer): 3420 µg/mL (≈ 12.3 mM) | solubility at 30 min ([7]; pH 8, aqueous buffer): 3530 µg/mL (≈ 12.7 mM) | solubility at 30 min ([7]; pH 9, aqueous buffer): 3080 µg/mL (≈ 11.1 mM) | solubility at 30 min ([7]; pH 10, aqueous buffer): 3180 µg/mL (≈ 11.5 mM) | solubility at 30 min ([7]; pH 11, aqueous buffer): 3380 µg/mL (≈ 12.2 mM) | solubility at 30 min [3]: 3420 µg/mL (≈ 12.3 mM) | pH of saturated solution [3]: 2.26 | Onset temperature of first cleavage ([4]; TG/DTA, higher crucible): 208 °C | Td ([4]; TG/DTA, higher crucible): 208 °C | Temp. range of 1st cleavage ([4]; TG/DTA, higher crucible): 196–260 °C | Onset temperature of first cleavage ([4]; TGA 7, shallow crucible): 215 °C | Td ([4]; TGA 7, shallow crucible): 215 °C | Temp. range of 1st cleavage ([4]; TGA 7, shallow crucible): 183–251 °C | Td (decomposition onset) [4]: 212 °C

NCCCCCCCC(O)(P(=O)(O)O)P(=O)(O)O [Compound 5, (8-Amino-1-hydroxyoctylidene)bisphosphonic acid]
pKa [1, 8]: 1.08 | pKa [1, 9]: 2.52 | pKa [1, 10]: 6.75 | pKa [1, 11]: 10.7 | pKa [1, 12]: 11.7 | logβx ± 3σ, x = 1 (H3L−) [1]: 6.75 ± 0.03 | logβx ± 3σ, x = 2 (H4L) [1]: 9.27 ± 0.05 | logβx ± 3σ, x = 3 (H5L+) [1]: 10.35 ± 0.24 | logβx ± 3σ, x = −1 (HL3−) [1]: −10.67 ± 0.03 | logβx ± 3σ, x = −2 (L4−) [1]: −22.32 ± 0.02 | solubility at 24 h ([6]; Milli-Q water, unbuffered, 4 °C): 1850 µg/mL (≈ 6.06 mM) | solubility at 24 h ([6]; Milli-Q water, unbuffered, 7.6 °C): 1900 µg/mL (≈ 6.23 mM) | solubility at 24 h ([6]; Milli-Q water, unbuffered, 21 °C): 2100 µg/mL (≈ 6.88 mM) | solubility at 24 h ([6]; Milli-Q water, unbuffered, 30 °C): 2270 µg/mL (≈ 7.44 mM) | solubility at 24 h ([6]; Milli-Q water, unbuffered, 40 °C): 2400 µg/mL (≈ 7.86 mM) | solubility at 24 h ([6]; Milli-Q water, unbuffered, 50 °C): 3450 µg/mL (≈ 11.3 mM) | pKa 2 (Sirius) [2]: 3.10 | pKa 3 (Sirius) [2]: 6.46 | pKa 4 (Sirius) [2]: 7.12 | pKa 5 (Sirius) [2]: 10.77 | solubility at 30 min ([3]; Milli-Q water, unbuffered): 2100 µg/mL (≈ 6.88 mM) | pH of saturated solution [3]: 2.61 | Onset temperature of first cleavage ([4]; TG/DTA, higher crucible): 193 °C | Td ([4]; TG/DTA, higher crucible): 193 °C | Temp. range of 1st cleavage ([4]; TG/DTA, higher crucible): 182–212 °C | Onset temperature of first cleavage ([4]; TGA 7, shallow crucible): 197 °C | Td ([4]; TGA 7, shallow crucible): 197 °C | Temp. range of 1st cleavage ([4]; TGA 7, shallow crucible): 175–222 °C | Td (decomposition onset) [4]: 195 °C
